From patent publication US20170205426A1, “RAPID MASS SPECTROMETRY METHODS FOR ANTIMICROBIAL SUSCEPTIBILITY TESTING USING TOP-DOWN MASS SPECTROMETRY” (priority 2016, published 2017)

Experiments:
[1] = system: CTX-M15; experiment: Bottom-up mass spectrometry sequence coverage of CTX-M15 in K. pneumoniae cultures induced with ertapenem; type: cell-based, Klebsiella pneumoniae; conditions: for CTX-M15 Sequence Coverage: induced with 0.5 mM ertapenem
Experimental: (§1) In some embodiments, a sample of the microbial culture or biological sample is exposed to conditions that induce antimicrobial resistance in the microorganisms prior to testing. In other embodiments, a sample of the microbial culture or biological sample is tested without intentionally inducing antimicrobial resistance in the microorganisms. In certain embodiments, many resistance mechanisms may not have to be induced in order to detect the target proteins of interest. For example, we have observed that the production of PBP2a from MRSA samples varies in its baseline expression without induction. In examining expression of carbapenem-resistant Enterobacteriaceae (CRE)-related resistances, several strains of Klebsiella pneumoniae that contained different combinations of the resistance marker beta-lactamase were tested to determine the effect on detection for induced and non-induced samples. Table 1 lists various resistant and susceptible strains of K. pneumoniae which were tested with 0.5 mM of ertapenem as an inducer. In these experiments, bottom-up mass spectrometry was used to measure sequence coverage of two representative beta-lactamases, KPC-2 and CTX-M15. The percent sequence coverage observed is an approximate measure of the amount of a given protein present in any given extract. The higher the percent sequence coverage observed, the higher the level of that given protein in an extract.

[2] = system: KPC-2; experiment: Bottom-up mass spectrometry sequence coverage of KPC-2 in K. pneumoniae cultures induced with ertapenem; type: cell-based, Klebsiella pneumoniae; conditions: for KPC-2 Sequence Coverage: induced with 0.5 mM ertapenem
Experimental: as §1

[3] = variety of K. pneumoniae strains, 0.5 mM ertapenem as inducer

## C[C@@H](O)[C@H]1C(=O)N2C(C(=O)O)=C(S[C@@H]3CN[C@H](C(=O)Nc4cccc(C(=O)O)c4)C3)[C@H](C)[C@H]12 [ertapenem]
[1]; strain 13883 (Susceptible)
  CTX-M15 Sequence Coverage: not detected
[1]; strain BAA-1903 (Resistant)
  CTX-M15 Sequence Coverage: not detected
[1]; strain BAA-1905 (Resistant)
  CTX-M15 Sequence Coverage: not detected
[1]; strain BAA-2473 (Resistant)
  CTX-M15 Sequence Coverage: 70% ± 0%
[1]; strain BAA-2578 (Resistant)
  CTX-M15 Sequence Coverage: 60% ± 2%
[1]; [3]
  percent sequence coverage of CTX-M15, induced versus non-induced: the same regardless of induction
[2]; strain 13883 (Susceptible)
  KPC-2 Sequence Coverage: not detected
[2]; strain BAA-1903 (Resistant)
  KPC-2 Sequence Coverage: 73% ± 0%
[2]; strain BAA-1905 (Resistant)
  KPC-2 Sequence Coverage: 85% ± 5%
[2]; strain BAA-2473 (Resistant)
  KPC-2 Sequence Coverage: not detected
[2]; strain BAA-2578 (Resistant)
  KPC-2 Sequence Coverage: not detected
[2]; [3]
  percent sequence coverage of KPC-2, induced versus non-induced: the same regardless of induction
